# Results reported in article PMC11796242, “Nitidine chloride inhibits the progression of hepatocellular carcinoma by suppressing IGF2BP3 and modulates metabolic pathways in an m^6A-dependent manner” (Molecular Medicine, 2025).
# Target: T1, IGF2BP3 (Homo sapiens, UniProt O00425)
# T1 construct: immobilised by amine coupling on CM5 chip (PDB 6GQE used only for docking)
# Test: SPR (BIAcore T200, CM5 chip, immobilised IGF2BP3, […] Langmuir global fit)
# Type: binding
# T1 sequence (O00425 whole entry): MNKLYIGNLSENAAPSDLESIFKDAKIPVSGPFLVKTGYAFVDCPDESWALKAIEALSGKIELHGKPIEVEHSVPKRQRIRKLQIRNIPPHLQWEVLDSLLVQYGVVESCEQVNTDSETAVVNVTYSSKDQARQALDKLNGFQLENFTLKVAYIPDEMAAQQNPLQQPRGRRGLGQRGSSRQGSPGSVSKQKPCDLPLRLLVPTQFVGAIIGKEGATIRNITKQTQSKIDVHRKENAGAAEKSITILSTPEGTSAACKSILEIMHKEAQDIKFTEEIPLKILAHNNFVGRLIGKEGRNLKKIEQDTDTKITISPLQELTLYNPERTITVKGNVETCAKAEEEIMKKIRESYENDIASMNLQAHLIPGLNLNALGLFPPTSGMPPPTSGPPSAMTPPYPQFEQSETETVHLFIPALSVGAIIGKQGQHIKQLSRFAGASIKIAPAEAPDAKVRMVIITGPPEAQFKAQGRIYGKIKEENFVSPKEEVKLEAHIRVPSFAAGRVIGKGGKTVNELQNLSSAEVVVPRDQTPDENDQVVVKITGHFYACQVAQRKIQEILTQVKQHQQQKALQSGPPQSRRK
smiles,measurement,value
COc1cc2c[n+](C)c3c4cc5c(cc4ccc3c2cc1OC)OCO5 [nitidine chloride],Kd,6.37 µM
